Where two headings read alike, the source gives them in different places.
Key:
[1] = target: T1, dopamine transporter ([^3 H]CFT binding sites, primate caudate-putamen) (Macaca fascicularis, UniProt Q9GJT6); assay: Inhibition of [^3 H]CFT binding in monkey caudate-putamen membranes (Table 2); parameters: species or system cynomolgus monkeys (Macaca fascicularis)
T1 construct: from tissue; host or cells: caudate-putamen membranes of cynomolgus monkey brain

[2] = target: dopamine transporter, human caudate nucleus and putamen (Homo sapiens, UniProt Q01959); assay: [^3 H]CFT binding to homogenates of human caudate nucleus and putamen
Excerpt: In order to determine whether [^3 H]CFT labels sites associated with the dopamine transporter, the binding of [^3 H]CFT to homogenates of human caudate nucleus and putamen, was characterized.

[3] = test system: [^3 H]CFT binding sites in monkey caudate-putamen; details: cited from earlier work; for number of binding components: competition curves; for steepness of competition curve: displacement of [^3 H]CFT
[4] = test system: cocaine receptors in squirrel monkey brain; assay: Ex vivo autoradiography after intravenous administration; format: in vivo, squirrel monkeys
Excerpt: From the in vitro autoradiographic studies, two conclusions were drawn: (a) cocaine receptors labelled by [^3 H]CFT distributed primarily to dopamine-rich brain regions and (b) the highly circumscribed distribution and low level of non-specific binding of [^3 H]CFT further supported the development of CFT as a PET imaging ligand for cocaine receptors in vivo. However, as the distribution pattern of a probe in vitro may not necessarily reflect its distribution in vivo, it was necessary to determine whether similar conclusions could be drawn using ex vivo autoradiographic techniques. The ex vivo autoradiographic distribution of [^3 H]CFT was determined following intravenous administration of [^3 H]CFT (1.0 or 2.5 nmol/kg) to squirrel monkeys (FIG. 4B). Brain sections from several A-P levels were exposed to [^3 H]-sensitive film. […] Nevertheless, the ex vivo labeling of brain regions by [^3 H] CFT corresponded closely to the in vitro autoradiographic pattern.
(§1) At the time these studies were completed, a higher affinity iodinated analog of [^3 H]CFT, [^125 I]RTI-55 (i.e., CIT, 2β-carbomethoxy-3β-(4-iodophenyl)tropane; Dupont-NEN), became available. […] This ligand was also tested by ex vivo autoradiography as an imaging probe.

[5] = test system: cocaine recognition sites in squirrel monkey brain; assay: In vitro autoradiography in squirrel monkey brain sections; format: binding
Procedure: To identify the distribution of cocaine recognition sites in the brain, autoradiographic techniques were utilized. Such techniques were particularly appropriate for this purpose because they are 100-1,000 times more sensitive than radioreceptor assays conducted in tissue homogenates. […] Three sequential procedures: parametric studies, in vitro autoradiographic techniques, and ex vivo autoradiographic techniques were conducted in tissue sections of squirrel monkey brains.
After establishing suitable conditions for autoradiography, systematic mapping of cocaine recognition sites were conducted in squirrel monkey brain at nine anterior-posterior levels. Tissue sections were incubated alone, or in the presence of excess (-)-cocaine to determine total and nonspecific binding of [^3 H]CFT, respectively.

[6] = target: T2, cocaine recognition sites in monkey caudate-putamen (Macaca fascicularis, UniProt Q9GJT6); assay: [^3 H]CFT and [^3 H]cocaine binding in tissue homogenates of monkey caudate-putamen
T2 construct: All studies were conducted in monkey brain caudate-putamen; from tissue; host or cells: monkey brain caudate-putamen homogenates
Procedure: All studies were conducted in monkey brain caudate-putamen for two reasons. […] Second, primates are consistently used to test diagnostic imaging agents and to test for cocaine-like drugs and drug therapies for Parkinson's disease.

[7] = target: T2, cocaine recognition sites in monkey caudate-putamen; details: cited from earlier work
[8] = test system: cocaine binding sites associated with the dopamine transporter; assay: Binding in postmortem Parkinson's diseased putamen / caudate-putamen; parameters: species or system human; details: tissue homogenates (FIG. 3) or tissue sections
[9] = test system: caudate-putamen / striatum cocaine receptors; assay: PET imaging with [^11 C]CFT
[10] = test system: sites in the caudate putamen; assay: [^125 I]RTI-55 labeling of sites in caudate putamen; format: binding
Procedure: as §1

[11] = test system: serotonin transporter; details: cited from earlier work
[12] = human caudate nucleus and putamen homogenates
[13] = [^3 H]CFT 1.0 or 2.5 nmol/kg i.v.

T1 sequence (Q9GJT6 whole entry): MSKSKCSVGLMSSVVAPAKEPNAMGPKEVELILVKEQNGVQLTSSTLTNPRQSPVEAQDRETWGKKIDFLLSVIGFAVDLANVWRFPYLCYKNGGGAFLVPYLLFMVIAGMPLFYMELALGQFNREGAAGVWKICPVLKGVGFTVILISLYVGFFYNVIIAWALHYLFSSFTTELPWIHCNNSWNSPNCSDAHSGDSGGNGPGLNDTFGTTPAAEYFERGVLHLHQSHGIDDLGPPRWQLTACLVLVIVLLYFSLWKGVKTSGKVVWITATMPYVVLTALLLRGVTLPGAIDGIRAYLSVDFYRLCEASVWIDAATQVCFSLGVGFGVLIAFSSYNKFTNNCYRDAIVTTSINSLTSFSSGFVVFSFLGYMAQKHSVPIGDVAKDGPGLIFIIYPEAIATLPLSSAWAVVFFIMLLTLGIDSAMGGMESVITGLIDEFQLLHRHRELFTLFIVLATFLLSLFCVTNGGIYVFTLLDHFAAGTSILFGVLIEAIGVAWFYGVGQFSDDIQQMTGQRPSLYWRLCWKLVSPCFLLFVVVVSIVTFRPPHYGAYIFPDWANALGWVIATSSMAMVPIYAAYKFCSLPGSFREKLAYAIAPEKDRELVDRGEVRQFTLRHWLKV
T2 sequence (Q9GJT6 whole entry): as above
Chain of dopamine transporter, human caudate nucleus and putamen (Q01959 whole entry): as the sequence (Q9GJT6 whole entry) above, with M24V, V137I, S194P, G198S, N200D, G201S, P202S counted along it

## COC(=O)[C@H]1[C@@H](c2ccc(Cl)cc2)C[C@@H]2CC[C@H]1N2C [4'b (CCT), 2β-Carbomethoxy-3β-(4-chlorophenyl)tropane]
[1]
  IC50: 0.0014 ± 3.5e-05 µM

## COC(=O)[C@H]1[C@@H](c2cccc(Br)c2)C[C@@H]2CC[C@H]1N2C [4'd (3-CBT), 2β-Carbomethoxy-3β-(3-bromophenyl)tropane]
[1]
  IC50: 0.00793 ± 7.7e-05 µM

## COC(=O)[C@H]1[C@@H](c2cccc(I)c2)C[C@@H]2CC[C@H]1N2C [4'e (3-CIT), 2β-Carbomethoxy-3β-(3-iodophenyl)tropane]
[1]
  IC50: 0.0278 ± 0.00305 µM

## CCC[CH2][Sn]([CH2]CCC)([CH2]CCC)[c]1cccc([C@H]2C[C@@H]3CC[C@H]([C@H]2C(=O)OC)N3C)c1 [4'f, 2β-Carbomethoxy-3β-(3-tributylstannylphenyl)tropane]
[1]
  IC50: 1.08 ± 0.165 µM

## COC(=O)[C@H]1[C@@H](c2ccccc2)C[C@@H]2CC[C@H]1N2C [4'g (WIN 35, 065-2)]
[1]; read-out: IC50
  IC50: 0.065 ± 0.012 µM

## COC(=O)[C@H]1[C@@H](c2ccc(I)cc2)C[C@@H]2CC[C@H]1N2C [4'h (RTI-55), 2β-carbomethoxy-3β-(4-iodophenyl)tropane]
[1]
  IC50: 0.00108 ± 6e-05 µM

## COC(=O)[C@@H]1[C@H](OC(=O)c2ccccc2)C[C@H]2CC[C@@H]1N2C [(+)-cocaine]
[2]; [12]
  rank order of potency for inhibiting [^3 H]CFT binding: Lu 19-005>CFT, mazindol, GBR 12909>(-)-cocaine>bupropion>(+)-cocaine

## COC(=O)[C@H]1[C@@H](OC(=O)c2ccccc2)C[C@@H]2CC[C@H]1N2C [(-)-cocaine]
[2]; [12]
  rank order of potency for inhibiting [^3 H]CFT binding: Lu 19-005>CFT, mazindol, GBR 12909>(-)-cocaine>bupropion>(+)-cocaine
[3]
  extent of displacement of [^3 H]CFT: full displacement of [^3 H]CFT
  number of binding components: at least two binding components
  steepness of competition curve: 0.61-0.89

## COC(=O)[C@H]1[C@@H](OC(=O)c2ccccc2)C[C@@H]2CC[C@H]1N2 [(-)-norcocaine]
[3]
  extent of displacement of [^3 H]CFT: full displacement of [^3 H]CFT
  number of binding components: at least two binding components
  steepness of competition curve: 0.61-0.89

## Fc1ccc(C(OCCN2CCN(CCCc3ccccc3)CC2)c2ccc(F)cc2)cc1 [GBR 12909]
[2]
  rank order of potency for inhibiting [^3 H]CFT binding: Lu 19-005>CFT, mazindol, GBR 12909>(-)-cocaine>bupropion>(+)-cocaine
[3]
  number of binding components: a single binding component
  steepness of competition curve: 0.94-1.1

## CNC1CC(c2ccc(Cl)c(Cl)c2)c2ccccc21 (stereo not shown) [Lu 19-005]
[3]
  number of binding components: a single binding component
  steepness of competition curve: 0.94-1.1

## COC(=O)[C@H]1[C@@H](c2ccc(F)cc2)C[C@@H]2CC[C@H]1N2C [[^3 H]CFT, 2β-carbomethoxy-3β-(4-fluorophenyl)tropane]
[4]; [13]
  ex vivo binding compared with in vitro, cortex and thalamus: more prominent binding in vivo than in vitro
  ex vivo distribution of binding: caudate, putaman>nucleus accumbens/olfactory tubercla, stria terminalis>substantia nigra>hypothalamus
[2]; [12]
  character of [^3 H]CFT binding: saturable, stereoselective
[5]; bed nucleus of stria terminalis, ventral tegmental area, medial preoptic area, pineal, hippocampus, thalamic central nuclei
  density of [^3 H]CFT binding: Low, though measurable, levels
[5]; caudate nucleus, putamen, nucleus accumbens, olfactory tubercle
  specific binding as % of total binding: > 90%
[5]; dopamine-rich regions: caudate nucleus, putamen, nucleus accumbens, olfactory tubercle
  density of [^3 H]CFT binding: High densities
[5]; substantia nigra, zona incerta, amygdala, hypothalamus
  density of [^3 H]CFT binding: Intermediate densities
[5]; white matter, cerebellum, globus pallidus, cortical regions
  density of [^3 H]CFT binding: Near background levels
[6]
  affinity relative to [^3 H]cocaine: 18 times
[7]; by enantiomers of cocaine and pseudococaine and diastereoisomers of WIN 35,065-2
  stereoselective inhibition of binding: inhibited stereoselectively
[7]
  NaCl requirement for specific binding: NaCl was necessary for specific binding
  dissociation rate versus [^3 H]cocaine: considerably slower
  non-specific binding versus [^3 H]cocaine: lower than that of [^3 H]cocaine
[7]; high- and low-affinity binding components
  high-affinity component of total number of sites: approximately 10%
[7]; monkey caudate-putamen homogenates
  Bmax (density of binding sites): 388 pmol/g
[7]; read-out: K0.50, affinity, monkey caudate-putamen
  Kd: 0.016 µM
[8]
  [^3 H]CFT binding sites in postmortem human Parkinson's diseased caudate-putamen: severely depleted

## COC(=O)[C@H]1[C@@H](c2ccc(F)cc2)C[C@@H]2CC[C@H]1N2C [[^11 C]CFT, 2β-carbomethoxy-3β-(4-fluorophenyl)tropane]
[9]; 58 min
  striatal-to-cerebellar ratio: > 4.0
[9]; MPTP-treated Parkinsonian
  CFT binding in MPTP-treated Parkinsonian monkeys: reduced
[9]; PET, 90 min imaging
  uptake in caudate-putamen: high uptake
[9]; asymptomatic
  CFT binding in asymptomatic monkeys: depletion was found

## COC(=O)[C@H]1[C@@H](c2ccc(I)cc2)C[C@@H]2CC[C@H]1N2C [[^125 I]RTI-55, 2β-carbomethoxy-3β-(4-iodophenyl)tropane]
[10]
  potency of labeling caudate putamen sites relative to [^3 H]CFT: approximately 10 fold
[4]; caudate-putamen
  ex vivo density: highest densities
[4]; thalamus, cortex and brain stem nuclei
  ex vivo density: moderately high densities
[11]
  additional sites labeled: associated with the serotonin transporter

## CC(NC(C)(C)C)C(=O)c1cccc(Cl)c1 (stereo not shown) [bupropion]
[2]
  rank order of potency for inhibiting [^3 H]CFT binding: Lu 19-005>CFT, mazindol, GBR 12909>(-)-cocaine>bupropion>(+)-cocaine
[3]
  number of binding components: a single binding component
  steepness of competition curve: 0.94-1.1

## OC1(c2ccc(Cl)cc2)c2ccccc2C2=NCCN21 (stereo not shown) [mazindol]
[9]; cynomolgus monkey, in vivo
  displacement of bound [^11 C]CFT from striatum: displaced bound [^11 C]CFT from the striatum
[2]
  rank order of potency for inhibiting [^3 H]CFT binding: Lu 19-005>CFT, mazindol, GBR 12909>(-)-cocaine>bupropion>(+)-cocaine
